Assay results as given in patent US20180353460A1, “METHODS OF TREATING UROLOGICAL DISORDERS USING SARMs” (priority 2014, published 2018).
“Also recorded” adds a separate entry of the source.

Columns and labels:
pelvic floor muscles = assay: Pelvic floor muscle weight, body weight, lean mass and histology in ovariectomized female mice; format: in vivo, mouse; conditions: OVX mice, 0.5-5 mg/kg/day p.o., 28 days; for pelvic floor muscle weight (cumulative COC, Pc and IL): vs OVX animals
Description: (§1) Six to eight week old female mice (n=5-7) purchased from JAX® Mice were ovariectomized (OVX) or sham operated. Twenty days after OVX, treatment was initiated as outlined in the table below. Compounds of Formulas IX and VIII were dissolved in DSMO/PEG 300 (15:85) and were administered by oral gavage. Body weight and MRI measurements, to evaluate total body lean mass, were recorded at the beginning and at the end of the treatment. The animals were treated for twenty-eight days and then sacrificed, pelvic floor muscles isolated, weighed and stored for RNA and protein extraction. The expression of genes involved in catabolism and anabolism of muscle was measured by mRNA analysis. The serum concentrations of the drugs were measured by LC-MS/MS. The statistical analysis was performed using JMP Pro® software utilizing one way analysis of variance.
Pelvic floor muscles were paraffin embedded and sections were stained for collagen (Mason trichrome) and elastin (Van Gieson). Stains were evaluated by a pathologist for fiber length and stain intensity.
The pelvic floor muscles in mice are small making the unmagnified visualization difficult. In order to improve the resolution, the pelvic regions of the mice were immersed in formalin for two days after sacrifice before dissecting them under microscope along with precise weight measurement. The COC, Pc, and IL were isolated and weighed using a microbalance that has a resolution as low as a microgram.
Six to eight week old female mice (n=6-8/group) were ovariectomized (OVX) or sham operated. One month after OVX, when the serum hormone levels were at trough, body composition was measured by MRI and treatment was initiated with vehicle or a dose response of one of two SARMs. Twenty eight days after treatment initiation, body composition was again measured, animals were sacrificed, and pelvic floor muscles were weighed. Serum drug concentrations were measured by LC-MS/MS. Muscle sections were stained for collagen and elastin to evaluate the effect of SARMs on architecture. Data were analyzed by One Way ANOVA followed by Tukey test.

[1] = Serum drug concentration by LC-MS/MS in ovariectomized mice; format: in vivo; conditions: female, mouse, oral, 28 days
Description: as §1
After samples were thawed, a 100 μL aliquot of mouse serum from each sample was mixed with 200 μL acetonitrile containing 200 nM compound of Formula XIII as the internal standard. After each sample was thoroughly vortex for 15 seconds, the sample was centrifuged at 3000 rpm for 10 min. Approximately 200 μL supernatant was transferred for LC-MS/MS analysis
Stock solutions of compounds of Formulas IX and VIII were 100 μM in DMSO. A dilution of 1:50 with control mouse serum was made and 200 μL of 2 μM was added to the first micro centrifuge tube. […] Transferred 100 μL from tube 1 (2 μM) to tube 2, vortexed and continued the 2 fold dilution through tube 7. 200 μL of acetonitrile containing 200 nM compound of Formula XIII as the internal standard was added to each tube. After vortexing and centrifuging, 200 μL was transferred to LC-MS/MS analysis. The concentration of each standard curve ranged from 1 μM to 0.0078 μM.
The analysis of compounds of Formulas IX and VIII in serum was performed using LC-MS/MS system consisting of Agilent 1100 HPLC with an MDS/Sciex 4000 Q-Trap™ mass spectrometer. The separation was achieved using a C18 analytical column (Alltima™, 2.1×100 mm, 3 μm) protected by a C18 guard column (Phenomenex™ 4.6 mm ID cartridge with holder). Mobile phase was consisting of channel A (95% acetonitrile+5% water+0.1% formic acid) and channel C (95% water+5% acetonitrile+0.1% formic acid) and was delivered isocratically at a flow rate of 0.4 mL/min. The total runtime for compound of Formula IX was 4.5 min, and the volume injected was 10 μL. The total runtime for compound of Formula VIII was also 4.5 min, and the volume injected was 10.0 μL. Multiple reaction monitoring (MRM) scans were made with curtain gas at 30 for compound of Formula IX, 25 for compound of Formula VIII; collision gas at medium for compound of Formula IX, high for compound of Formula VIII; nebulizer gas and auxiliary gases at 60 and source temperature at 550° C. for both. Molecular ions were formed using an ion spray voltage (IS) of 4200 V (negative mode). Declustering potential (DP), entrance potential (EP), collision energy (CE), product ion mass, and cell exit potential (CXP) were optimized with the values of −20.0, −10.0, −30.0, and −15.0, respectively, for the mass pair 388.1/118.1 (compound of Formula IX). Declustering potential (DP), entrance potential (EP), collision energy (CE), product ion mass, and cell exit potential (CXP) were optimized with the values of −95.9, −9.94, −40.0, and −15.0, respectively, for the mass pair 354.0/118.1 (compound of Formula VIII).
Animals were sacrificed 24 h after the last dose to measure the steady state concentration.

Structure (SMILES)	total lean body mass by MRI (pelvic floor muscles)	pelvic floor muscle weight (cumulative COC, Pc and IL) (pelvic floor muscles)	coccygeus (COC) muscle weight (pelvic floor muscles; vs OVX controls)	concentration at 24 h after the last dose ([1]; 0.5 mpk p.o.)	concentration at 24 h after the last dose ([1]; 2.5 mpk p.o.)	concentration at 24 h after the last dose ([1]; 5 mpk p.o.)
C[C@](O)(COc1ccc(C#N)cc1)C(=O)Nc1ccc(C#N)c(Cl)c1 [VIII, (S)—N-(3-Chloro-4-cyanophenyl)-3-(4-cyanophenoxy)-2-hydroxy-2-methylpropanamide]	more potent than Compound IX in increasing lean mass	performed better than compound of Formula IX in increasing the muscle weights; also recorded: increase the weight of pelvic floor muscles	more potent than Compound IX	0.429 µM	2.44 µM	4.1 µM
C[C@](O)(COc1ccc(C#N)cc1)C(=O)Nc1ccc(C#N)c(C(F)(F)F)c1 [Compound IX, (S)—N-(4-Cyano-3-(trifluoromethyl)phenyl)-3-(4-cyanophenoxy)-2-hydroxy-2-methylpropanamide]		increase the weight of pelvic floor muscles		0.862 µM	3.85 µM	6.07 µM
